Measured values from ChEMBL document CHEMBL1139599, “Benzothieno[3,2-b]indole derivatives as potent selective estrogen receptor modulators” (Bioorg Med Chem Lett, 2005).

Tests used:
[1] = target: Estrogen receptor beta (Homo sapiens, UniProt Q92731); assay: Inhibition of [3H]17-beta-estradiol binding to human estrogen receptor beta
[2] = target: T1, Estrogen receptor (Homo sapiens, UniProt P03372); assay: Inhibition of [3H]17-beta-estradiol binding to human estrogen receptor alpha
T1 sequence (P03372 whole entry): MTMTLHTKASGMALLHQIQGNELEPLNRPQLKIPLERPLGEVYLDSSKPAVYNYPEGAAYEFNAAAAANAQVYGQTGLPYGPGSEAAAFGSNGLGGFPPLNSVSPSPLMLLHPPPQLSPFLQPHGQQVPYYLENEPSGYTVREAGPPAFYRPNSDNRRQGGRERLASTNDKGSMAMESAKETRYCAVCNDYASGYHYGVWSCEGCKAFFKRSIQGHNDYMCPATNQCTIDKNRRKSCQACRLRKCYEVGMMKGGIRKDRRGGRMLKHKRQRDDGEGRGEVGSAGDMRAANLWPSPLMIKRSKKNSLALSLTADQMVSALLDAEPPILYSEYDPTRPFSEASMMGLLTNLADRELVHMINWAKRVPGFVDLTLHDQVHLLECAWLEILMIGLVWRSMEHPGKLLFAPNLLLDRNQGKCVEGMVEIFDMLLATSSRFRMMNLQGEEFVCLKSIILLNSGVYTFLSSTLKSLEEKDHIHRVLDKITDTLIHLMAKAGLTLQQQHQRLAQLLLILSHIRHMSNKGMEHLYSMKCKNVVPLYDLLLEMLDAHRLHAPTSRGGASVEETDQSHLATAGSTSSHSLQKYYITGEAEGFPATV

[3] = target: T2, Estrogen receptor (Mus musculus) (UniProt O08537+P19785); conditions: Uterus
Description: Uterine wet weight in ovariectomized mice after 4 weeks of subcutaneous administration at 4 umol/kg (n=5)

[4] = target: T2, Estrogen receptor (Mus musculus)

T2 sequence (O08537 whole entry, looked up): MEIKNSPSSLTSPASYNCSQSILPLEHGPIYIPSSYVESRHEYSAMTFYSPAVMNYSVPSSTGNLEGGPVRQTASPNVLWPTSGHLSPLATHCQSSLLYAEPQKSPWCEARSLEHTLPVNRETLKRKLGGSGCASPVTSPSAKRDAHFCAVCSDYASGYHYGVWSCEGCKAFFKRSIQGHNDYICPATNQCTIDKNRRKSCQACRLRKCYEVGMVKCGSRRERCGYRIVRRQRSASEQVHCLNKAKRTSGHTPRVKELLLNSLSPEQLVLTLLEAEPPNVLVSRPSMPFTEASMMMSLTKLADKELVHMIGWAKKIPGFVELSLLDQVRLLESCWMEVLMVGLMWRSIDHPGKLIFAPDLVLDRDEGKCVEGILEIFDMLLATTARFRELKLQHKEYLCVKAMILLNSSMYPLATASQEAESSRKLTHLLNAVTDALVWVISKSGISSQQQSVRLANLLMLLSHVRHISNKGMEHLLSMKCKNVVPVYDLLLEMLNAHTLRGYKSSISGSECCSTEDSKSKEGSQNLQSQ
T2 sequence (P19785 whole entry, looked up): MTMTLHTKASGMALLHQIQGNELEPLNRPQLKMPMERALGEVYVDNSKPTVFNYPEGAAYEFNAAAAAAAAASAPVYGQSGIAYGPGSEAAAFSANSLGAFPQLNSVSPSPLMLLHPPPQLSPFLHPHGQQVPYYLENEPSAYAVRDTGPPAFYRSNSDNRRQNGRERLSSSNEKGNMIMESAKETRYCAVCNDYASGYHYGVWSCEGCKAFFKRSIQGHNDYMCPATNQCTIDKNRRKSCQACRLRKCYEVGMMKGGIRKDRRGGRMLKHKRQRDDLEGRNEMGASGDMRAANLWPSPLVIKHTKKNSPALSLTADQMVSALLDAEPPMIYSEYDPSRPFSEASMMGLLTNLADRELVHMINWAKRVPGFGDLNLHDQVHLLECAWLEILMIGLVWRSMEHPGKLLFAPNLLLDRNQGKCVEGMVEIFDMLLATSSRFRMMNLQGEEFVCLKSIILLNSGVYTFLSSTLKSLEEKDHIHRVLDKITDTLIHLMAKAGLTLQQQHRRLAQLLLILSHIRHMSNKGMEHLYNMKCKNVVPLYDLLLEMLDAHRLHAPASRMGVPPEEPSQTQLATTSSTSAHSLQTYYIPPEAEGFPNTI
Chain of Estrogen receptor beta (Q92731 whole entry): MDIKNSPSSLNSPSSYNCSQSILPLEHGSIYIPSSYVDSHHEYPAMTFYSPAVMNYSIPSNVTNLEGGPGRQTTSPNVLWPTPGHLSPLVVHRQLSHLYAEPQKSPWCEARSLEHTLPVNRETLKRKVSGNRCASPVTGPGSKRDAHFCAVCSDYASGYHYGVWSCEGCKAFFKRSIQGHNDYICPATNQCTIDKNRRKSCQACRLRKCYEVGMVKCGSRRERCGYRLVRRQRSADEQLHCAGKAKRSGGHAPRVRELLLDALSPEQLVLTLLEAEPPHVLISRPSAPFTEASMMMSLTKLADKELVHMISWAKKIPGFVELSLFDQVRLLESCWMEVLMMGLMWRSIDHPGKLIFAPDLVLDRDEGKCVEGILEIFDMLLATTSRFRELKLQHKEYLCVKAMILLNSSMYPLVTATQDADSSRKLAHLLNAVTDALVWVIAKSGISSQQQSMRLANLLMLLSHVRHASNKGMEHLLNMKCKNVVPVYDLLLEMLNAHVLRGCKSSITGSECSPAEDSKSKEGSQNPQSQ

Structure (SMILES)	IC50 [1] [nM]	IC50 [2] [nM]	Wet weight [3] [mg]	BMD [4] [mg/cm3]
Oc1ccc2c(c1)sc1c3ccccc3n(Cc3ccc(OCCN4CCOCC4)cc3)c21	215	126	27	455
Oc1ccc2c(c1)sc1c3ccccc3n(Cc3ccc(OCCN4CCCC4)cc3)c21	53.9	27.2	27.6	505
CN(C)CCOc1ccc(Cn2c3ccccc3c3sc4cc(O)ccc4c32)cc1	45.6	51.4	28.2	474
Oc1ccc2c(c1)sc1c3cc(O)ccc3n(Cc3ccc(OCCN4CCOCC4)cc3)c21	21.4	10	26.3	470
Oc1ccc2c(c1)sc1c3ccccc3n(Cc3ccc(OCCN4CCCCC4)cc3)c21	35	39	34	436
Oc1ccc2c(c1)sc1c3cc(O)ccc3n(Cc3ccc(OCCN4CCCC4)cc3)c21	20.2	6	30.7	469
Oc1ccc2c(c1)sc1c3cc(O)ccc3n(Cc3ccc(OCCN4CCCCCC4)cc3)c21	7.26	3.34	44.2	534

Next, values leading:

IC50 [1] [nM]	IC50 [2] [nM]	Wet weight [3] [mg]	BMD [4] [mg/cm3]	Structure (SMILES)
31	18	26.2	480	CN(C)CCOc1ccc(Cn2c3ccc(O)cc3c3sc4cc(O)ccc4c32)cc1
11	2.84	44.2	548	Oc1ccc2c(c1)sc1c3cc(O)ccc3n(Cc3ccc(OCCN4CCCCC4)cc3)c21
16.4	31.2	37.7	479	CCN(CC)CCOc1ccc(Cn2c3ccc(O)cc3c3sc4cc(O)ccc4c32)cc1
16.6	18	28.5	444	Oc1ccc2c(c1)sc1c3ccccc3n(Cc3ccc(OCCN4CCCCCC4)cc3)c21
25	57.4	34.9	448	CCN(CC)CCOc1ccc(Cn2c3ccccc3c3sc4cc(O)ccc4c32)cc1
